Data from US5091368A, “Biologically active compounds from blue-green algae” (Harbor Branch Oceanographic Institution, Inc., priority 1990, dated 1992).
≈ marks a conversion by molar mass, not a printed value.

Tests used:
[1] = system: herpes simplex virus type 1 (HSV-1), Kos strain; experiment: HSV-1 plaque inhibition assay in CV-1 cells; type: cell-based; conditions: anti-HSV-1 activity
Source text: (§1) The antiviral assay for herpes simplex virus type 1 (HSV-1) is a plaque inhibition assay. CV-1 cells (a fibroblast-like cell culture derived from primary African green monkey cells) are infected with the Kos strain of HSV-1 . Cytopathic effects (CPE) of the virus are prevented from rapid spread by a methylcellulose medium. Distinct areas of infected cells or plaques are distinguished from a surrounding area of viable CV-1 cells by staining the culture with neutral red which is a stain taken up by living cells. The viral dose can be quantitated by counting the number of plaques. Compounds with antiviral activity can be identified by comparing the plaque number in the drug treated cells to the HSV-1 viral control.
Twenty-four well plates (16 mm diameter per well) are seeded with 2×10^5 cells per well in 0.5 ml growth medium and incubated at 37°) C. with 5% CO2. The plates are used in 24 to 72 hours. Each well is infected with at least 25 but no more than 80 plaque forming units (PFU) of virus. Plates are incubated for 1.0 hours at 37° C. with 0.2 ml virus. […]
(§2) Discs are placed in wells containing cells, virus, and overlay medium. Plates are incubated at 37° C. for 48 hours, the second overlay medium is added at […] per well, and, after 24 hours additional incubation time, the plates are read. […]

[2] = system: murine splenocytes from BALB/c mice (lymphoid cells); experiment: Lymphocyte viability assay (LCV), MTT; type: cell-based; conditions: percent of positive control (no drug)
Protocol: 1. Extra and compounds were similarly tested in parallel with the MLR to determine their toxic effects on lymphoid cells using the lymphocyte viability assay (LCV).
(§3) 3. Murine splenocyte suspensions were prepared from BALB/c mice. Spleens were aseptically removed and homogenized in RPMI-1640 tissue culture medium (TCM), supplemented with 10% fetal calf serum, 2% 1-glutamine, 15 mM HEPES, 1% antibiotic-antimycotic solution, and 25 μg/ml gentamicin (GIBCO). The cell concentrations were adjusted to 2.5 ×10^6 cells/ml.
4. A volume of 0.2 ml of the splenocyte suspension was added to replicate test wells. Positive control wells received splenocyte suspensions in the absence of the test extracts/compounds.
5. Plates were incubated at 37° C. for 86 hours. At the end of the incubation period, a volume of 75 μl of a 2.0 mg/ml solution of MTT was added to each well, and the plates were returned to the incubator for an additional 5 hours.
6. The supernatants from each microwell were then removed, and a volume of 200 μl of isopropanol was added and the contents mixed.
7. Values were obtained by comparing the optical densities (determined at 570 and 650 nm) of wells containing the test compounds with those of wells containing cells and medium only (positive control). The results are expressed as a percentage of the positive control.
8. Replicate counts were averaged, and the data reported as a percentage of the positive control. An LCV value of less than 60% of the positive control is an indication of cytotoxicity of the test extracts/compounds for lymphoid cells.

[3] = system: murine P388 leukemia cells; experiment: Toxicity against murine P388 leukemia cells (MTT, 48 hour exposure); type: cell-based
Protocol: P388 cells obtained from J. Mayo, National Cancer Institute, Bethesda, Md., were maintained in Roswell Park Memorial Institute medium 1640 (RPMI-1640) supplemented with 10% horse serum. All cell lines were cultured in plastic tissue culture flasks and kept in an incubator at 37° C. in humidified air containing 5% CO2. Antibiotic-free stock cultures of P388 cells were subcultured to 10^5 cells/ml by dilution in fresh growth medium at 2-3 day intervals. The means generation time of primary cultures was 14-17 hours.
Solvent for all dilutions was methanol, which was removed from plates under vacuum. All experimental cultures were initiated in medium containing Gentamicin sulfate ([…]; Schering Corporation, Kenilworth, N.J.). […]
To quantitate the effects on cell proliferation, 75 μl of warm growth medium containing 5 mg/ml MTT was added to each well and cultures were returned to the incubator for 90 minutes. To spectophotometrically quantitate formation of reduced formazan, plates were centrifuged (900 xg, 5 minutes), culture fluids removed by aspiration, and 200 μl of acidified isopropanol (2 ml concentrated HCl/liter isopropanol) added per well. The absorbance of the resulting solutions were measured at 570 nm with a plate reader (MR700 Microplate Reader, Dynatech Laboratories, Chantilly, Va.). […]

[4] = system: combined murine splenocyte suspensions from BALB/c and C57BL/6J mice; experiment: Mixed lymphocyte reaction (MLR), 3H-thymidine incorporation; type: cell-based; conditions: percent of positive control (no drug)
Protocol: as §3, with “1.” for “3.”, “prepared separately” for “prepared”, “BALB/c and C57BL/6J” for “BALB/c”, “cells/ml. Aliquots of each cell population were removed to separate tubes, and the remaining two cell suspensions combined to one tube.” for “cells/ml.”
3. A volume of 0.2 ml of the combined splenocyte suspensions was added to triplicate test wells. Positive control wells received combined splenocyte suspensions in the absence of the test extracts/compounds. Negative control wells consisted of separate (not mixed) splenocyte suspensions cultured in the absence of the test compounds.
4. Plates were incubated in 5% CO2 at 37° C. for 86 hours.
5. A volume of 0.05 ml of ^3 H-thymidine (20 μCk/ml) was added to each well, and the plates were incubated in 5% CO2 at 37° C. for an additional 5 hours.
6. The contents of each well of the microtiter plates were harvested onto glass fiber filter strips, and the resulting filter discs placed in scintillation vials to which 2.0 ml of scintillation fluid was added.
7. The amount of incorporated ^3 H-thymidine was determined by counting the vials in a liquid scintillation counter.
8. Triplicate counts were averaged, and the data reported as a percentage of the positive control.

[5] = system: CV-1 cells; experiment: Drug cytotoxicity in the antiviral assay; type: cell-based, African green monkey; conditions: anti-HSV-1 assay; ID50 not defined in the text, TI = ID50/ED50
Source text: as §1
Confluent cultures of CV-1 cells are rinsed with PBS two times and 4.0 ml trypsin solution is added to 150 cm^2 tissue sulture flask. Cells are dispersed an 10×10^6 CV-1 cells in 40 ml of growth medium are added to new 150 cm^2 flasks. The number of cells added to a cell culture flask is proportional to the area. The cell culture is confluent in 5 to 7 days for use in the antiviral assay. […]
as §2

Compound: microcolin B
- ED50 [1]: 146.0 nanograms/ml
- % LCV Control ([2]; 2.5 ng/ml): 78%
- % LCV Control ([2]; 5.0 ng/ml): 121%
- % LCV Control ([2]; 10.0 ng/ml): 107%
- % LCV Control ([2]; 20.0 ng/ml): 105%
- % LCV Control ([2]; 40.0 ng/ml): 97%
- % LCV Control ([2]; 80.0 ng/ml): 114%
- % LCV Control ([2]; 160.0 ng/ml): 99%
- % LCV Control ([2]; 312.5 ng/ml): 110%
- % LCV Control ([2]; 625.0 ng/ml): 88%
- % LCV Control ([2]; 1250.0 ng/ml): 75%
- % LCV Control ([2]; 2500.0 ng/ml): 51%
- % LCV Control ([2]; 5000.0 ng/ml): 29%
- IC50 [3]: 0.096 µg/mL
- % MLR Control ([4]; 2.5 ng/ml): 93%
- % MLR Control ([4]; 5.0 ng/ml): 87%
- % MLR Control ([4]; 10.0 ng/ml): 80%
- % MLR Control ([4]; 20.0 ng/ml): 39%
- % MLR Control ([4]; 40.0 ng/ml): 1%
- % MLR Control ([4]; 80.0 ng/ml): < 1%
- % MLR Control ([4]; 160.0 ng/ml): < 1%
- % MLR Control ([4]; 312.5 ng/ml): < 1%
- % MLR Control ([4]; 625.0 ng/ml): < 1%
- % MLR Control ([4]; 1250.0 ng/ml): < 1%
- % MLR Control ([4]; 2500.0 ng/ml): < 1%
- % MLR Control ([4]; 5000.0 ng/ml): < 1%
- ID50 [5]: 1185 nanograms/ml

Compound: CCCC[C@@H](C)C[C@@H](C)C(=O)N(C)[C@@H](CC(C)C)C(=O)N[C@H](C(=O)N(C)[C@H](C(=O)N1C[C@@H](O)C[C@H]1C(=O)N1C(=O)C=C[C@@H]1C)C(C)C)[C@H](C)OC(C)=O [Microcolin A, microcolin A]
- ED50 [1]: 2.5 nanograms/ml
- % LCV Control ([2]; 2.5 ng/ml): 78%
- % LCV Control ([2]; 5.0 ng/ml): 71%
- % LCV Control ([2]; 10.0 ng/ml): 80%
- % LCV Control ([2]; 20.0 ng/ml): 82%
- % LCV Control ([2]; 40.0 ng/ml): 60%
- % LCV Control ([2]; 80.0 ng/ml): 59%
- % LCV Control ([2]; 160.0 ng/ml): 59%
- % LCV Control ([2]; 312.5 ng/ml): 48%
- % LCV Control ([2]; 625.0 ng/ml): 52%
- % LCV Control ([2]; 1250.0 ng/ml): 31%
- % LCV Control ([2]; 2500.0 ng/ml): 18%
- % LCV Control ([2]; 5000.0 ng/ml): 3%
- IC50 [3]: 0.0009 µg/mL (≈ 1.2 nM)
- % MLR Control ([4]; 2.5 ng/ml): < 1%
- % MLR Control ([4]; 5.0 ng/ml): < 1%
- % MLR Control ([4]; 10.0 ng/ml): < 1%
- % MLR Control ([4]; 20.0 ng/ml): < 1%
- % MLR Control ([4]; 40.0 ng/ml): < 1%
- % MLR Control ([4]; 80.0 ng/ml): < 1%
- % MLR Control ([4]; 160.0 ng/ml): < 1%
- % MLR Control ([4]; 312.5 ng/ml): < 1%
- % MLR Control ([4]; 625.0 ng/ml): < 1%
- % MLR Control ([4]; 1250.0 ng/ml): < 1%
- % MLR Control ([4]; 2500.0 ng/ml): < 1%
- % MLR Control ([4]; 5000.0 ng/ml): < 1%
- ID50 [5]: 480 nanograms/ml
